Test results: patent US10099998B2, “Compound, and separation method, synthesis method and use thereof” (BEIJING PEKING UNIVERSITY WBL BIOTECH CO., LTD., priority 2015, dated 2018)

Biological target: T1, HMG-CoA reductase (Rattus norvegicus, UniProt P51639)
T1 construct: the male rat liver was removed and rinsed with KESD buffer; from tissue; host or cells: male rat liver microsomes
T1 sequence (P51639 1-887): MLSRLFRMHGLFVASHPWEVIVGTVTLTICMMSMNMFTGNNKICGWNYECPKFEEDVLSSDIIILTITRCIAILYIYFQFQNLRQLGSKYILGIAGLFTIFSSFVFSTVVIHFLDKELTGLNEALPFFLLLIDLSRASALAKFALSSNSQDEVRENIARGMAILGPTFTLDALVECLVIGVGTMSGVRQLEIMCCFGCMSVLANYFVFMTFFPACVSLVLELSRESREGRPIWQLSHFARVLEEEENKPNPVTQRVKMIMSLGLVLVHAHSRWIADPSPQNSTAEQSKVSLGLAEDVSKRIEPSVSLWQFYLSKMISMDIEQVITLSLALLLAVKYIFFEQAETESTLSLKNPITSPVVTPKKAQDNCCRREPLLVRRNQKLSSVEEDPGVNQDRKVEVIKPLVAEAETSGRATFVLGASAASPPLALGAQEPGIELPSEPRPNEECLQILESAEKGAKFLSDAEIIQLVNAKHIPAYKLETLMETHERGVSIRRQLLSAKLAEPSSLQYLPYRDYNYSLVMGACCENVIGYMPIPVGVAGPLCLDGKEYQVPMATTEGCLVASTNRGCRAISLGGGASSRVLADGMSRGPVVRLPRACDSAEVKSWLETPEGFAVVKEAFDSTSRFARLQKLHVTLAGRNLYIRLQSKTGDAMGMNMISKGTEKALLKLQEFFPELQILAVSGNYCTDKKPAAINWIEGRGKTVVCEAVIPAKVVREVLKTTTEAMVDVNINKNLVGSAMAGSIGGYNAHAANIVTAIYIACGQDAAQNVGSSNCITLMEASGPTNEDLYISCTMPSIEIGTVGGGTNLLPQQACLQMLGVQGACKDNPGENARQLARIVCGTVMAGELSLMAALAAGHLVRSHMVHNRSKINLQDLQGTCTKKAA
Assay: Assay on HMG-CoA reductase-inhibiting activity (decreasing rate of OD340)
Type: biochemical
Conditions: for Inhibition rate (%): rat liver microsomes, 37° C., pH 6.8; for Slope (decreasing rate of OD340 within 5 min): blank control slope 13.5
Protocol: Rat liver microsomes (HMG-CoA reductase) were commercially purchased, or were prepared by reference to the following method: the male rat liver was removed and rinsed with KESD buffer, and then centrifuged at 12,000 g for 15 min. The supernatant was taken. After centrifugation at 105,000 g for 90 min twice, the centrifuged pellets resulted from centrifugation were collected. To the centrifuged pellets, 8.3% glycerol was added, and the resultant mixture was heated in a 37° C. warm bath for 1 h. The crude product of the rat liver microsomes was purified with saturated ammonium sulfate, and the 35-50% purified fraction was collected. The rat liver microsomes obtained were stored in −80° C. refrigerator.
Compound 5 was dissolved in 75% ethanol solution, at an initial concentration of 8.6 mg/ml, and was subjected to stepwise dilution to obtain 4.3 mg/ml, 2.15 mg/ml. The total volume of the test system was 250 μl, and the concentrations of various ingredients were as follows: 200 mM potassium chloride, 160 mM potassium dihydrogen phosphate, 4 mM ethylenediamine tetra acetic acid, 10 mM dithiothreitol, and the concentrations for the two substrates […] and 3-hydroxy-3-methylglutaryl-coenzyme A were 200 μM and 50 μM, pH 6.8, respectively, wherein 30 μl was added for enzyme, 5 μl was added for the test group, and 5 μl (solvent for dissolving the sample) was added for the control group. The dynamic change in OD340 was determined at 37° C. by Versamax ELISA Microplate Reader. The decreasing rate of OD340 (represented by slope) was measured within 5 min, to evaluate the HMG-CoA reductase activity, and to further evaluate the enzyme-inhibiting activity.

Inhibition rate (%) (final concentration 80 μg/ml (inhibitor 4.0 mg/ml, 5 μl)) | Slope (decreasing rate of OD340 within 5 min) (final concentration 80 μg/ml) | Inhibition rate (%) (final concentration 43 μg/ml (inhibitor 2.15 mg/ml, 5 μl)) | Slope (decreasing rate of OD340 within 5 min) (final concentration 43 μg/ml) | Inhibition rate (%) (final concentration 86 μg/ml (inhibitor 4.3 mg/ml, 5 μl)) | Slope (decreasing rate of OD340 within 5 min) (final concentration 86 μg/ml) | Inhibition rate (%) (final concentration 172 μg/ml (inhibitor 8.6 mg/ml, 5 μl)) | Slope (decreasing rate of OD340 within 5 min) (final concentration 172 μg/ml) | SMILES | HMG-CoA reductase inhibition, result in words (43-172 μg/ml, dose-response relationship)
39.2 | 8.2 |  |  |  |  |  |  | CC[C@H](C)C(=O)O[C@H]1C[C@@H](C)C=C2C=C[C@H](C)[C@H](CC[C@@H]3C[C@@H](O)CC(=O)O3)[C@H]21 [lovastatin, reference compound] | 
 |  | 19.2 | 10.9 | 33.3 | 9.0 | 42.2 | 7.8 | COC(=O)CC(O)CC(O)CCC1c2ccc(C)cc2C=CC1C (stereo not drawn) [Compound 5, methyl 7-(2,6-dimethyl-1,2-dihydronaphthalen-1-yl)-3,5-dihydroxyheptanoate] | inhibited the HMG-CoA reductase activity, and exhibited a dose-response relationship
